Columns and labels:
Details in all cases: incubation time: 72 h
BT-474 [1] = experiment: normalised response (% of control), CellTox Green; higher = less cell death (100 = DMSO, 0 = benzethonium chloride kill control)
Summary of the method: (§1)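 For each plate, 0.1 % DMSO was set to 100 and a positive kill control to 0. Breast cancer cell lines (20 µl suspension) were seeded into 384-well plates already holding compound at 5 concentrations in 10-fold steps over a 10,000-fold range chosen per compound, and incubated for 72 h. CellTox Green fluorescence at 485/520 nm was read before CellTiter-Glo luminescence, which followed 10 min at room temperature. Each value is the normalised signal at one concentration.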

BT-549 [2] = experiment: as above
Summary of the method: as §1

CAL-120 [3] = experiment: as above
Summary of the method: as §1

CAL-148 [4] = experiment: as above
Summary of the method: as §1

CAL-51 [5] = experiment: as above
Summary of the method: as §1

CAL-85-1 [6] = experiment: as above
Summary of the method: as §1

DU-4475 [7] = experiment: as above
Summary of the method: as §1

HCC1143 [8] = experiment: as above
Summary of the method: as §1

HCC1599 [9] = experiment: as above
Summary of the method: as §1

HCC1937 [10] = experiment: as above
Summary of the method: as §1

HDQ-P1 [11] = experiment: as above
Summary of the method: as §1

MCF-10A [12] = experiment: as above
Summary of the method: as §1

MDA-MB-231 [13] = experiment: as above
Summary of the method: as §1

MDA-MB-436 [14] = experiment: as above
Summary of the method: as §1

MDA-MB-453 [15] = experiment: as above
Summary of the method: as §1

MDA-MB-468 [16] = experiment: as above
Summary of the method: as §1

MFM-223 [17] = experiment: as above
Summary of the method: as §1

BT-474 [18] = experiment: normalised response (% of control), CellTiter-Glo; higher = more viable cells (100 = DMSO, 0 = benzethonium chloride kill control)
Experimental: (§2)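 DSRT, 72 h incubation, CellTox Green / CellTiter-Glo readout. Signal is normalised to DMSO and benzethonium chloride controls. Value is the normalised response at dose 3.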

BT-549 [19] = experiment: as above
Experimental: as §2

CAL-120 [20] = experiment: as above
Experimental: as §2

CAL-148 [21] = experiment: as above
Experimental: as §2

CAL-51 [22] = experiment: as above
Experimental: as §2

CAL-85-1 [23] = experiment: as above
Experimental: as §2

DU-4475 [24] = experiment: as above
Experimental: as §2

HCC1143 [25] = experiment: as above
Experimental: as §2

HCC1599 [26] = experiment: as above
Experimental: as §2

HCC1937 [27] = experiment: as above
Experimental: as §2

HDQ-P1 [28] = experiment: as above
Experimental: as §2

Hs578T [29] = experiment: as above
Experimental: as §2

MCF-10A [30] = experiment: as above
Experimental: as §2

MDA-MB-231 [31] = experiment: as above
Experimental: as §2

MDA-MB-436 [32] = experiment: as above
Experimental: as §2

MDA-MB-453 [33] = experiment: as above
Experimental: as §2

MDA-MB-468 [34] = experiment: as above
Experimental: as §2

MFM-223 [35] = experiment: as above
Experimental: as §2

SK-BR-3 = experiment: as above
Experimental: as §2

Hs578T [36] = experiment: normalised response (% of control), CellTox Green; higher = less cell death (100 = DMSO, 0 = benzethonium chloride kill control)
Summary of the method: as §1

Row | Structure (SMILES) | normalised response (BT-474 [1]) [%] | normalised response (BT-549 [2]) [%] | normalised response (CAL-120 [3]) [%] | normalised response (CAL-148 [4]) [%] | normalised response (CAL-51 [5]) [%] | normalised response (CAL-85-1 [6]) [%] | normalised response (DU-4475 [7]) [%] | normalised response (HCC1143 [8]) [%] | normalised response (HCC1599 [9]) [%] | normalised response (HCC1937 [10]) [%] | normalised response (HDQ-P1 [11]) [%] | normalised response (MCF-10A [12]) [%] | normalised response (MDA-MB-231 [13]) [%] | normalised response (MDA-MB-436 [14]) [%] | normalised response (MDA-MB-453 [15]) [%] | normalised response (MDA-MB-468 [16]) [%] | normalised response (MFM-223 [17]) [%] | normalised response (BT-474 [18]) [%] | normalised response (BT-549 [19]) [%] | normalised response (CAL-120 [20]) [%] | normalised response (CAL-148 [21]) [%] | normalised response (CAL-51 [22]) [%] | normalised response (CAL-85-1 [23]) [%] | normalised response (DU-4475 [24]) [%] | normalised response (HCC1143 [25]) [%] | normalised response (HCC1599 [26]) [%] | normalised response (HCC1937 [27]) [%] | normalised response (HDQ-P1 [28]) [%] | normalised response (Hs578T [29]) [%] | normalised response (MCF-10A [30]) [%] | normalised response (MDA-MB-231 [31]) [%] | normalised response (MDA-MB-436 [32]) [%] | normalised response (MDA-MB-453 [33]) [%] | normalised response (MDA-MB-468 [34]) [%] | normalised response (MFM-223 [35]) [%] | normalised response (SK-BR-3) [%] | normalised response (Hs578T [36]) [%]
1 | CC(=O)O[C@]1(C(C)=O)CC[C@H]2[C@@H]3C=C(C)C4=CC(=O)CC[C@]4(C)[C@H]3CC[C@@]21C [Megestrol acetate] (100 nM) | 101 | 95.4 | 103 | 66.4 | 105 | 103 | 99.9 | 74 | 83.5 | 68.3 | 81.5 | 64.5 | 116 | 107 | 104 | 149 | 99.2 | 109 | 109 | 96.5 | 97.4 | 109 | 104 | 99.4 | 95.7 | 102 | 104 | 95.6 | 106 | 104 | 111 | 101 | 86.9 | 90.4 | 99.1 | 94.3 | –
2 | OC[C@H]1O[C@@H](n2cnc3c2N=CNC[C@H]3O)C[C@@H]1O [Pentostatin] (100 nM) | 101 | 99.5 | 103 | 55.8 | 102 | 106 | 101 | 88.7 | 100 | 96.4 | 77.7 | 94.7 | 123 | 90.5 | 103 | 104 | 99.5 | 93.3 | 96.1 | 103 | 97.8 | 86.6 | 100 | 106 | 104 | 107 | 99.4 | 99 | 104 | 102 | 106 | 96.6 | 101 | 96.9 | 100 | 100 | –
3 | CN1CC[C@H](c2c(O)cc(O)c3c(=O)cc(-c4ccccc4Cl)oc23)[C@H](O)C1 [Alvocidib] (100 nM) | 98.4 | 101 | 97.2 | 103 | 102 | 91.1 | 96.8 | 114 | 108 | 113 | 92.7 | 91.8 | 69 | 69.6 | 106 | 111 | 106 | 85.8 | 95.5 | 86.2 | 100 | 81.3 | 104 | 94.1 | 102 | 108 | 99.2 | 86.5 | 103 | 100 | 90.8 | 75.9 | 122 | 91.9 | 96.9 | 87.8 | –
4 | N#CC[C@H](C1CCCC1)n1cc(-c2ncnc3[nH]ccc23)cn1 [Ruxolitinib] (100 nM) | 97.1 | 108 | 103 | 78.4 | 99.5 | 97.7 | 96.2 | 96.9 | 95 | 91.7 | 94.4 | 86.5 | – | 83.7 | 99 | 52.5 | 98.4 | 96.6 | 103 | 96.3 | 87.1 | 113 | 95.1 | 95.8 | 98.2 | 94 | 102 | 100 | 94.4 | 84.2 | 97.9 | 93.8 | 85.7 | 96.6 | 90.5 | 88.4 | 60.9
5 | COc1cccc2c1C(=O)c1c(O)c3c(c(O)c1C2=O)C[C@@](O)(C(=O)CO)C[C@@H]3O[C@H]1C[C@H](N)[C@H](O)[C@H](C)O1 [Doxorubicin] (10 nM) | 98 | 82.1 | 96.7 | 107 | 107 | 100 | 101 | 112 | 118 | 91.2 | 110 | 90 | – | 94.8 | 105 | 91.5 | 107 | 103 | 103 | 98.1 | 111 | 91.8 | 103 | 104 | 109 | 98.8 | 101 | 102 | 106 | 98.4 | 104 | 92.5 | 106 | 106 | 108 | 107 | 111
6 | Nc1nc(Cl)nc2c1ncn2[C@H]1C[C@H](O)[C@@H](CO)O1 [Cladribine] (10 nM) | 100 | 97.8 | 102 | 80.9 | 106 | 107 | 102 | 53.3 | 95 | 88.3 | 62.4 | 102 | 109 | – | 58.9 | – | 104 | 99.6 | 105 | 102 | 99.5 | 84.4 | 101 | 102 | 101 | 106 | 92.6 | 95.8 | 101 | 99.5 | 100 | 102 | 105 | 102 | 104 | 108 | –
7 | COc1cccc2cc(-c3nc([C@H]4CC[C@H](C(=O)O)CC4)n4ncnc(N)c34)[nH]c12 [OSI-027] (100 nM) | 99.4 | 93.2 | 97.6 | 102 | 105 | 95.9 | 98.5 | – | 102 | 90.9 | 114 | 98.3 | 76.7 | – | 101 | 77.1 | 105 | 94.8 | 98.3 | 92.9 | 100 | 103 | 96.6 | 100 | 101 | 114 | 98.2 | 97 | 95.3 | 86.7 | 95.3 | 92 | 74.2 | 92.1 | 91.3 | 77.3 | 108
8 | CN(C)C/C=C/C(=O)Nc1cc2c(Nc3ccc(F)c(Cl)c3)ncnc2cc1O[C@H]1CCOC1 [Afatinib] (10 nM) | 95.2 | 67.8 | 95.5 | 97.5 | 109 | 94.8 | 97.6 | – | 109 | 113 | 101 | 12.3 | 96.5 | 96.1 | 82.9 | 70.8 | 69 | 98.9 | 112 | 94 | 97.9 | 87.7 | 97 | 106 | 106 | 118 | 97.6 | 81.2 | 101 | 59.3 | 99.3 | 96 | 88.6 | 98.1 | 104 | 64.6 | 97.6
